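Assay format: 96-well plates, 48-hour exposure. Abbreviation: GI50, concentration required for 50% inhibition of growth. TGI marks complete inhibition of growth.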
Legend:
Test in all cases: NCI-60 cell line screen, 48 h
[1] = test system: A498 renal
[2] = test system: COLO 205 colon
[3] = test system: DU-145 prostate
[4] = test system: HL-60(TB) leukemia
[5] = test system: HOP-62 NSCLC
[6] = test system: K-562 leukemia
[7] = test system: MOLT-4 leukemia
[8] = test system: NCI-H460 lung
[9] = test system: SNB-75 CNS
[10] = test system: SW-620 colon

| Compound | GI50 [1] | TGI [1] | GI50 [2] | TGI [2] | GI50 [3] | TGI [3] | GI50 [4] | TGI [4] | GI50 [5] | TGI [5] | GI50 [6] | TGI [6] | GI50 [7] | TGI [7] | GI50 [8] | TGI [8] | GI50 [9] | TGI [9] | GI50 [10] | TGI [10] |
| --- | --- | --- | --- | --- | --- | --- | --- | --- | --- | --- | --- | --- | --- | --- | --- | --- | --- | --- | --- | --- |
| Cc1ccc(C2=NN(c3ccc(S(=O)(=O)NC(=O)NCc4ccccc4)cc3)C(c3ccc(N(C)C)cc3)C2)c(C)c1 (configuration not stated) | 3.08 µM | 12.5 µM | 3.71 µM | 10.4 µM | 4.6 µM | 16.6 µM | 3.02 µM | 11.9 µM | 5.69 µM | 28 µM | 3.51 µM | > 100 µM | 3.65 µM | 73.8 µM | 3.33 µM | 10.4 µM | 2.44 µM | > 100 µM | 3.94 µM | 23.7 µM |
| CCOc1cc(Cl)c(C(C)NC(=O)c2cccc(OC)c2)cc1OCC (configuration not stated) | 0.561 µM | 21.9 µM | 7.17 µM | 47.3 µM | 24.8 µM | > 100 µM | 3.96 µM | > 100 µM | 6.94 µM | > 100 µM | 3.9 µM | > 100 µM | 5.91 µM | > 100 µM | 4.79 µM | > 54.8 µM | 4.79 µM | 49.9 µM | 4 µM | > 100 µM |
| CC(C)c1cnc(-c2cc(Cl)ccc2F)cc1Nc1ccncc1C(=O)NC(CO)CO | 2.28 µM | 19.7 µM | 14.9 µM | 33.9 µM | 13.4 µM | 42 µM | 20.1 µM | 60.7 µM | 12.8 µM | 32.9 µM | 12.3 µM | 46.5 µM | 11.7 µM | 39.3 µM | 12.5 µM | 28.3 µM | 0.0515 µM | 25.9 µM | 19.6 µM | 39.5 µM |
| O=C(O)c1ccc(CSc2nc3ccccc3[nH]2)cc1 | > 100 µM | > 100 µM | > 100 µM | > 100 µM | > 100 µM | > 100 µM | > 100 µM | > 100 µM | > 100 µM | > 100 µM | > 100 µM | > 100 µM | > 100 µM | > 100 µM | > 100 µM | > 100 µM | > 100 µM | > 100 µM | > 100 µM | > 100 µM |
| COc1ccc2nc3cc([N+](=O)[O-])ccc3c(NCCO)c2c1 | 12.7 µM | 32.7 µM | 3.31 µM | 17.4 µM | 3.62 µM | – | 3.03 µM | – | 2.07 µM | 5.19 µM | 1.22 µM | 3.85 µM | 1.14 µM | 6.34 µM | 1.66 µM | 4.9 µM | 2.92 µM | 16.1 µM | 4.08 µM | 25.7 µM |
| Nc1nc2ccc(CNc3ccc(C(=O)NC(CC(=O)O)C(=O)O)cc3)cc2c(=O)[nH]1 (configuration not stated) | > 38.9 µM | > 100 µM | 10.7 µM | > 100 µM | 1.58 µM | > 100 µM | 1.13 µM | > 100 µM | – | > 100 µM | 0.437 µM | > 100 µM | 16.3 µM | > 100 µM | 0.593 µM | > 100 µM | > 100 µM | > 100 µM | 0.525 µM | > 100 µM |
